Test results as given in publication PMC10056008 (Pharmaceuticals, 2023).
Where two headings read alike, the source gives them in different places.

Experiments:
[1] = test system: thrombin generation; assay: Thrombin generation assay (TGA) in plasma of dosed subjects; type: in vivo, human; conditions: mean (SD)
Experimental: An open-label, two-period, single sequence clinical study was conducted. After an overnight fast and drinking 200 mL of water one hour before drug administration, eligible subjects were administered with a capsule of dabigatran etexilate 150 mg ([…]®) on the first day of the study. Blood samples for pharmacokinetic and pharmacodynamic analyses were obtained using EDTA tubes and citrate tubes, respectively. […] Subjects remained at fasting stage until 4 h after the administration. […] To ensure compliance, subjects visited the study site for every drug administration. […] Blood samples were obtained at the same time point scheduled as the first day of the study. Adverse events were collected during the entire study period. This study was conducted in accordance with the Declaration of Helsinki, good clinical practice, and local regulation. […] TGA was performed using a Technothrombin® TGA kit (Technoclone, Vienna, Austria) on a fully automated, computer-controlled microplate reader (Flexstation 3; Molecular Devices, San Jose, CA, USA) with a 360 nm excitation wavelength and 460 nm emission wavelength. In brief, 30 μL of plasma samples were mixed with 25 μL of 400 μmol/L fluorogenic substrate ([…]; Bachem, Bubendorf, Switzerland). The assay was initiated by dispensing 10 μL of 5 pmol/L recombinant human tissue factor lipidated with synthetic phospholipids and 10 μL of 15 mmol/L CaCl2. TGA results are expressed as Cmax, AUC, Tmax, and lag time. For pharmacodynamic assessment, Phoenix Winnonlin® version 8.3 (Pharsight, Mountain View, CA, USA) was used to calculate AUEC with the linear trapezoidal method and Rmax was directly determined from individual profiles.

[2] = cited from earlier work
[3] = Pharmacokinetics of dabigatran etexilate, dabigatran and dabigatran acylglucuronide in plasma after 150 mg dabigatran etexilate with or without simvastatin; type: in vivo, human; conditions: for AUClast with simvastatin as % of value when administered alone / Cmax with simvastatin as % of value when administered alone: co-administered with simvastatin vs alone; for increase of AUClast after simvastatin co-administration: compared to dabigatran administered alone
Experimental: An open-label, two-period, single sequence clinical study was conducted. After an overnight fast and drinking 200 mL of water one hour before drug administration, eligible subjects were administered with a capsule of dabigatran etexilate 150 mg ([…]®) on the first day of the study. Blood samples for pharmacokinetic and pharmacodynamic analyses were obtained using EDTA tubes and citrate tubes, respectively. […] Subjects remained at fasting stage until 4 h after the administration. […] To ensure compliance, subjects visited the study site for every drug administration. […] Blood samples were obtained at the same time point scheduled as the first day of the study. Adverse events were collected during the entire study period. This study was conducted in accordance with the Declaration of Helsinki, good clinical practice, and local regulation. The study was approved by the Institutional Review Board at Korea University Guro Hospital (2018GR0336, date of approval: 11 October 2018) and registered at ClinicalTrials.gov (NCT03728101). Separate plasma samples were kept frozen below -70 °C until analysis. Plasma concentrations of dabigatran etexilate, dabigatran, and dabigatran acylglucuronide were quantified using a high-performance liquid chromatography (Nanospace series SI-2, Shiseido Co., Ltd., Tokyo, Japan) coupled with tandem mass spectrometry (API4000, AB SCIEX LLC, Framingham, MA, USA) method. The method was validated in terms of selectivity, linearity, precision, accuracy, recovery, matrix effect, and stability prior to the analysis. In brief, 100 μL of plasma samples were deproteinized using 400 μL of acetonitrile and centrifuged at 13,000× g for 20 min. Dabigatran-d3 was used as an internal standard. The supernatants were evaporated and then dissolved in a 300 μL mobile phase consisting of acetonitrile and 10 mM ammonium formate (215:85, v/v). These samples were injected onto an Atlantis HILIC SilicaTM column (2.1 mm × 150 mm, 3 μm, Waters, Milford, MA, USA) at a flow rate of 0.3 mL/min. The mass spectrometer equipped with an electrospray ionization source was operated in a positive ion mode. Selected ion pairs of m/z 629.464→290.100 for dabigatran etexilate, m/z 472.300→289.100 for dabigatran, m/z 648.382→289.100 for dabigatran acylglucuronide were detected. […] Pharmacokinetic parameters of dabigatran etexilate, dabigatran, and dabigatran acylglucuronide were derived from noncompartmental analysis using Phoenix Winnonlin® version 8.3 (Certara, Princeton, NJ, USA). Observed values from individual time-concentration profiles were used for Cmax and Tmax. Area under the time-concentration curve (AUC) was calculated using linear-up log-down trapezoidal rule. The AUC from 0 h to infinity (AUCinf) was calculated as follows: AUCinf = AUC + Ct/ke, where Ct was the last plasma concentration and ke was the elimination rate constant. […] Mean residence time (MRT) was calculated as area under the moment curve from time of dosing to the last measurable concentration divided by AUClast. All statistical analyses were performed using SAS® version 9.4 (SAS Institute Inc., Cary, NC, USA). Descriptive statistics were used to summarize demographic, pharmacokinetic, and pharmacodynamic data. A linear mixed effects model was used to compare Cmax, AUClast, and AUCinf between two treatment periods.

[4] = test system: coagulation; assay: Coagulation assay (aPTT, PT, dPT, TT, fibrinogen) in plasma of dosed subjects; type: in vivo, human; conditions: for Fibrinogen AUEC / Fibrinogen Rmax / PT (INR) AUEC / PT (INR) Rmax / PT (sec) AUEC / PT (sec) Rmax / TT AUEC / TT Rmax / aPTT AUEC / aPTT Rmax / dPT (1:256) AUEC / dPT (1:256) Rmax: mean (SD)
Experimental: An open-label, two-period, single sequence clinical study was conducted. After an overnight fast and drinking 200 mL of water one hour before drug administration, eligible subjects were administered with a capsule of dabigatran etexilate 150 mg ([…]®) on the first day of the study. Blood samples for pharmacokinetic and pharmacodynamic analyses were obtained using EDTA tubes and citrate tubes, respectively. […] Subjects remained at fasting stage until 4 h after the administration. […] To ensure compliance, subjects visited the study site for every drug administration. […] Blood samples were obtained at the same time point scheduled as the first day of the study. Adverse events were collected during the entire study period. This study was conducted in accordance with the Declaration of Helsinki, good clinical practice, and local regulation. The study was approved by the Institutional Review Board at Korea University Guro Hospital (2018GR0336, date of approval: 11 October 2018) and registered at ClinicalTrials.gov (NCT03728101). Anticoagulant assays of aPTT, PT, dPT, TT, and fibrinogen were measured using STA® Compact Max (Stago, Asnieres, France) according to the manufacturer's instructions. […] To measure aPTT, 50 μL of plasma sample was placed in a cuvette in the presence of STA®-PTT (50 μL) and 50 μL of 0.025 M CaCl2. For fibrinogen, 7.5 μL of plasma which was automatically diluted with Owren-Koller buffer was placed into a cuvette and then 50 μL of […] was added. For pharmacodynamic assessment, Phoenix Winnonlin® version 8.3 (Pharsight, Mountain View, CA, USA) was used to calculate AUEC with the linear trapezoidal method and Rmax was directly determined from individual profiles.

[5] = Adverse events, vital signs, clinical laboratory tests, electrocardiogram; type: in vivo, human; conditions: 12 healthy subjects; except one subject with mild pharyngitis, which resolved
Experimental: An open-label, two-period, single sequence clinical study was conducted. After an overnight fast and drinking 200 mL of water one hour before drug administration, eligible subjects were administered with a capsule of dabigatran etexilate 150 mg ([…]®) on the first day of the study. Blood samples for pharmacokinetic and pharmacodynamic analyses were obtained using EDTA tubes and citrate tubes, respectively. […] Subjects remained at fasting stage until 4 h after the administration. […] To ensure compliance, subjects visited the study site for every drug administration. […] Blood samples were obtained at the same time point scheduled as the first day of the study. Adverse events were collected during the entire study period. This study was conducted in accordance with the Declaration of Helsinki, good clinical practice, and local regulation.

[6] = 150 mg dabigatran etexilate alone, mean (SD)
[7] = co-administered with simvastatin 40 mg once daily, day 7, mean (SD)
[8] = human, oral, 150 mg dabigatran etexilate alone, plasma, mean (SD)
[9] = human, plasma, oral, 150 mg dabigatran etexilate alone, mean (SD)
[10] = human, plasma, oral, 150 mg dabigatran etexilate alone, mean (SD), read-out: Cmax
[11] = human, plasma, oral, 150 mg dabigatran etexilate alone, mean (SD), read-out: MRT

For [H]/N=C(/N)c1ccc(NCc2nc3cc(C(=O)N(CCC(=O)O)c4ccccn4)ccc3n2C)cc1 [Dabigatran], the “Thrombin Generation AUC AUEC” value ([1]; dabigatran alone) was 84,994.8 (14,977.1) nM∙min∙h, the “Thrombin Generation AUC Rmax” value ([1]; dabigatran alone) was 2423.6 (734.9) nM∙min and the “Thrombin Generation Lag time AUEC” value ([1]; dabigatran alone) was 131.7 (20.8) min∙h. For the same compound, the “Thrombin Generation Lag time Rmax” value ([1]; dabigatran alone) was 7.8 (1.7) min, the “Thrombin Generation AUC AUEC” value ([1]; dabigatran with simvastatin) was 79,286.4 (10,676.3) nM∙min∙h and the “Thrombin Generation AUC Rmax” value ([1]; dabigatran with simvastatin) was 2231.7 (326.0) nM∙min. For the same compound, the “Thrombin Generation Lag time AUEC” value ([1]; dabigatran with simvastatin) was 128.5 (20.1) min∙h, the “Thrombin Generation Lag time Rmax” value ([1]; dabigatran with simvastatin) was 8.0 (1.5) min and the “influence of atorvastatin on pharmacokinetics or pharmacodynamics of dabigatran” value ([2]; healthy volunteers) was “No influence”. The “fraction excreted via urine” value ([2]; intravenous dabigatran) was 85%, the CL/F [3, 6] was 362.3 (331.8) L/h and the Tmax ([3]; 150 mg dabigatran etexilate alone, median (min–max)) was 2 (1–4) h. For the same compound, the CL/F [3, 7] was 275.8 (197.4) L/h, the “AUClast with simvastatin as % of value when administered alone” value [3] was 121% and the “Cmax with simvastatin as % of value when administered alone” value [3] was 124%. For the same compound, the “increase of AUClast after simvastatin co-administration” value [3] was 21%, the AUC(0-inf) [3, 8] was 664 ng·h/mL and the AUC(0-t) [3, 8] was 617 ng·h/mL. It also gave a half-life [3, 9] of 6.1 h, a Cmax [3, 10] of 87 ng/mL and an MRT [3, 11] of 7.1 h. For the same compound, the “Fibrinogen AUEC” value ([4]; dabigatran alone) was 6249.8 (1133.1) h∙mg/dL, the “Fibrinogen Rmax” value ([4]; dabigatran alone) was 288.0 (55.9) mg/dL and the “PT (INR) AUEC” value ([4]; dabigatran alone) was 26.9 (1.4). The “PT (INR) Rmax” value ([4]; dabigatran alone) was 1.3 (0.1), the “PT (sec) AUEC” value ([4]; dabigatran alone) was 344.9 (14.3) s∙h and the “PT (sec) Rmax” value ([4]; dabigatran alone) was 16.6 (1.4) s. The “TT AUEC” value ([4]; dabigatran alone) was 1690.1 (535.9) s∙h, the “TT Rmax” value ([4]; dabigatran alone) was 169.2 (74.0) s and the “aPTT AUEC” value ([4]; dabigatran alone) was 1203.1 (153.1) s∙h. The “aPTT Rmax” value ([4]; dabigatran alone) was 69.5 (13.8) s, the “dPT (1:256) AUEC” value ([4]; dabigatran alone) was 1404.8 (184.7) s∙h and the “dPT (1:256) Rmax” value ([4]; dabigatran alone) was 87.5 (19.2) s. The “Fibrinogen AUEC” value ([4]; dabigatran with simvastatin) was 6040.9 (758.3) h∙mg/dL, the “Fibrinogen Rmax” value ([4]; dabigatran with simvastatin) was 309.3 (96.0) mg/dL and the “PT (INR) AUEC” value ([4]; dabigatran with simvastatin) was 27.7 (1.2). For the same compound, the “PT (INR) Rmax” value ([4]; dabigatran with simvastatin) was 1.4 (0.1), the “PT (sec) AUEC” value ([4]; dabigatran with simvastatin) was 353.8 (12.3) s∙h and the “PT (sec) Rmax” value ([4]; dabigatran with simvastatin) was 17.2 (1.4) s. The “TT AUEC” value ([4]; dabigatran with simvastatin) was 1976.2 (643.8) s∙h, the “TT Rmax” value ([4]; dabigatran with simvastatin) was 180.7 (50.4) s and the “aPTT AUEC” value ([4]; dabigatran with simvastatin) was 1235.7 (131.7) s∙h. For the same compound, the “aPTT Rmax” value ([4]; dabigatran with simvastatin) was 71.7 (12.2) s, the “dPT (1:256) AUEC” value ([4]; dabigatran with simvastatin) was 1482.9 (144.9) s∙h and the “dPT (1:256) Rmax” value ([4]; dabigatran with simvastatin) was 92.5 (15.3) s.

For CCCCCCOC(=O)NC(=N)c1ccc(NCc2nc3cc(C(=O)N(CCC(=O)OCC)c4ccccn4)ccc3n2C)cc1 [Dabigatran etexilate], the absolute bioavailability [2] is listed as 7%, the “increase in exposure in mild renal impairment patients vs healthy subjects” value ([2]; single dose) is listed as 1.5 times and the “adverse events, vital signs, clinical laboratory tests, electrocardiogram” value [5] is listed as “no adverse events or clinically significant changes”. For the same compound, the CL/F [3, 6] was 12,208.4 (16,447.7) L/h, the CL/F [3, 7] was 5235.1 (2729.4) L/h and the “AUClast with simvastatin as % of value when administered alone” value [3] was 147%. The “Cmax with simvastatin as % of value when administered alone” value [3] was 138%, the “increase of AUClast after simvastatin co-administration” value [3] was 47% and the AUC(0-inf) [3, 8] was 33.7 ng·h/mL. It also gave an AUC(0-t) [3, 8] of 26.1 ng·h/mL, a half-life [3, 9] of 3.4 h and a Cmax [3, 10] of 24.5 ng/mL. The MRT [3, 11] was 1.9 h, the Tmax ([3]; human, plasma, oral, 150 mg dabigatran etexilate alone, median (min–max), read-out: Tmax) was 1 h and the “time of highest mean value of aPTT, PT, dPT and TT” value ([4]; after administration of dabigatran etexilate) was 2 to 4 h.

In the case of CCC(C)(C)C(=O)O[C@H]1C[C@@H](C)C=C2C=C[C@H](C)[C@H](CC[C@@H](O)C[C@@H](O)CC(=O)O)[C@H]21 [simvastatin acid], the “Time to reach Cmax (Tmax)” value ([2]; human, in vivo) is given as ~4.2 h and the elimination half-life ([2]; human, in vivo) is given as ~4.4 h.

For Cn1c(CNc2ccc(C(=N)N)cc2)nc2cc(C(=O)N(CCC(=O)OC3O[C@H](C(=O)O)[C@@H](O)[C@H](O)[C@H]3O)c3ccccn3)ccc21 (stereo partly drawn) [Dabigatran acylglucuronide], the AUCinf ([3]; human, in vivo, 150 mg) was 1576.5 (1154.0) h∙ng/mL, the AUClast ([3]; human, in vivo, 150 mg) was 1480.1 (1090.5) h∙ng/mL and the CL/F ([3]; human, in vivo, 150 mg) was 176.8 (161.8) L/h. For the same compound, the Cmax ([3]; human, in vivo, 150 mg) was 266.8 (187.1) ng/mL, the MRT ([3]; human, in vivo, 150 mg) was 6.8 (0.9) h and the Tmax ([3]; human, in vivo, 150 mg) was 2 (1.5–4) h. The t1/2 ([3]; human, in vivo, 150 mg) was 6.4 (1.9) h.
